Experimental data published in US20140309265A1, “MACROCYCLIC COMPOUNDS FOR INHIBITION OF INHIBITORS OF APOPTOSIS” (Ensemble Therapeutics, priority 2011, published 2014).

How the values were obtained:
His-BIR3 (241-356, XIAP) = target: T1, His-BIR3 (241-356, XIAP) (Homo sapiens, UniProt P98170); assay: XIAP-BIR3/SMAC Homogeneous Time Resolved Fluorescence (HTRF) Assay; assay type: binding; settings: Table 4
T1 construct: additions of His-BIR3 (241-356, XIAP), fluorescein labeled SMAC peptide

[1] = target: T2, His-BIR2-3 (125-356, C202A/C213G, XIAP) (Homo sapiens, UniProt P98170, C202A/C213G); assay: XIAP-BIR2-3 Dimeric SMAC Peptide Homogeneous Time Resolved Fluorescence (HTRF) Assay; assay type: binding; settings: XIAP BIR2-3, HTRF, Table 4
T2 construct: additions of His-BIR2-3 (125-356, C202A/C213G, XIAP), fluorescein labeled dimeric SMAC peptide
T2 sequence (P98170 125-356 C202A/C213G): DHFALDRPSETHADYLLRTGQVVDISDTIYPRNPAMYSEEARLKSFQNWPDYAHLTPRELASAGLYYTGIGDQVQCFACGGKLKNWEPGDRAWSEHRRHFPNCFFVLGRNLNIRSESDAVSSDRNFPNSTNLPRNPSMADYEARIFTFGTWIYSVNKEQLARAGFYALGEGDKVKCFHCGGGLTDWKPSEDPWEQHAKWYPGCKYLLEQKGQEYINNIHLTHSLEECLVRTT

T1 sequence (P98170 241-356): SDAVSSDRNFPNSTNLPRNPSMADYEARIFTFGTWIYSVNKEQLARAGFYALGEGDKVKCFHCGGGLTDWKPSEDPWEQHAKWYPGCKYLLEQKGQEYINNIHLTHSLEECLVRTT

Compound	IC50 (His-BIR3 (241-356, XIAP)) [nM]	IC50 [1] [nM]
CN[C@@H](C)C(=O)N[C@H](C(=O)N1C[C@@H]2C[C@H]1C(=O)N[C@@H](Cc1ccc3ccccc3c1)C(=O)N[C@H](C(=O)O)Cc1ccc(cc1)OCc1cn(nn1)[C@H]1C[C@@H](C(=O)N[C@@H](Cc3ccc4ccccc4c3)C(=O)N[C@H](C(=O)N3CCC(C(=O)O)CC3)Cc3ccc(cc3)OCc3cn2nn3)N(C(=O)[C@@H](NC(=O)[C@H](C)NC)C(C)(C)C)C1)C(C)(C)C [Compound 1027]	10 to 100	1 to 10
CN[C@@H](C)C(=O)N[C@H](C(=O)N1C[C@@H]2C[C@H]1C(=O)N[C@@H](Cc1ccc3ccccc3c1)C(=O)N[C@H](C(=O)O)Cc1ccc(cc1)OCc1cn(nn1)[C@H]1C[C@@H](C(=O)N[C@@H](Cc3ccc4ccccc4c3)C(=O)N[C@H](C(=O)NCc3cccc(-c4nnn[nH]4)c3)Cc3ccc(cc3)OCc3cn2nn3)N(C(=O)[C@@H](NC(=O)[C@H](C)NC)C(C)(C)C)C1)C(C)(C)C [Compound 1029]	10 to 100	1 to 10
CN[C@@H](C)C(=O)N[C@H](C(=O)N1C[C@@H]2C[C@H]1C(=O)N[C@@H](Cc1ccc3ccccc3c1)C(=O)N[C@H](C(=O)O)Cc1ccc(cc1)OCc1cn(nn1)[C@H]1C[C@@H](C(=O)N[C@@H](Cc3ccc4ccccc4c3)C(=O)N[C@H](C(=O)NS(=O)(=O)c3ccccn3)Cc3ccc(cc3)OCc3cn2nn3)N(C(=O)[C@@H](NC(=O)[C@H](C)NC)C(C)(C)C)C1)C(C)(C)C [Compound 1035]	< 10	≤ 1
CN[C@@H](C)C(=O)N[C@H](C(=O)N1C[C@@H]2C[C@H]1C(=O)N[C@@H](Cc1ccc3ccccc3c1)C(=O)N[C@H](C(=O)O)Cc1ccc(cc1)OCc1cn(nn1)[C@H]1C[C@@H](C(=O)N[C@@H](Cc3ccc4ccccc4c3)C(=O)N[C@H](C(=O)NS(=O)(=O)c3ccc(OC(F)(F)F)cc3)Cc3ccc(cc3)OCc3cn2nn3)N(C(=O)[C@@H](NC(=O)[C@H](C)NC)C(C)(C)C)C1)C(C)(C)C [Compound 1036]	10 to 100	1 to 10
CN[C@@H](C)C(=O)N[C@H](C(=O)N1C[C@@H]2C[C@H]1C(=O)N[C@@H](Cc1ccc3ccccc3c1)C(=O)N[C@H](C(=O)O)Cc1ccc(cc1)OCc1cn(nn1)[C@H]1C[C@@H](C(=O)N[C@@H](Cc3ccc4ccccc4c3)C(=O)N[C@H](C(=O)NS(=O)(=O)CC3CC3)Cc3ccc(cc3)OCc3cn2nn3)N(C(=O)[C@@H](NC(=O)[C@H](C)NC)C(C)(C)C)C1)C(C)(C)C [Compound 1037]	10 to 100	1 to 10
CN[C@@H](C)C(=O)N[C@H](C(=O)N1C[C@@H]2C[C@H]1C(=O)N[C@@H](Cc1ccc3ccccc3c1)C(=O)N[C@H](C(=O)O)Cc1ccc(cc1)OCc1cn(nn1)[C@H]1C[C@@H](C(=O)N[C@@H](Cc3ccc4ccccc4c3)C(=O)N[C@H](C(=O)NS(=O)(=O)c3ccc4ccccc4c3)Cc3ccc(cc3)OCc3cn2nn3)N(C(=O)[C@@H](NC(=O)[C@H](C)NC)C(C)(C)C)C1)C(C)(C)C [Compound 1039]	10 to 100	1 to 10
CN[C@@H](C)C(=O)N[C@H](C(=O)N1C[C@@H]2C[C@H]1C(=O)N[C@@H](Cc1ccc3ccccc3c1)C(=O)N[C@H](C(=O)O)Cc1ccc(cc1)OCc1cn(nn1)[C@H]1C[C@@H](C(=O)N[C@@H](Cc3ccc4ccccc4c3)C(=O)N[C@H](C(=O)NCc3cc(F)c(OC)c(F)c3)Cc3ccc(cc3)OCc3cn2nn3)N(C(=O)[C@@H](NC(=O)[C@H](C)NC)C(C)(C)C)C1)C(C)(C)C [Compound 1040]	> 100	> 10
CN[C@@H](C)C(=O)N[C@H](C(=O)N1C[C@@H]2C[C@H]1C(=O)N[C@@H](Cc1ccc3ccccc3c1)C(=O)N[C@H](C(=O)O)Cc1ccc(cc1)OCc1cn(nn1)[C@H]1C[C@@H](C(=O)N[C@@H](Cc3ccc4ccccc4c3)C(=O)N[C@H](C(=O)NCc3cc(F)c(O)c(F)c3)Cc3ccc(cc3)OCc3cn2nn3)N(C(=O)[C@@H](NC(=O)[C@H](C)NC)C(C)(C)C)C1)C(C)(C)C [Compound 1041]	10 to 100	1 to 10

The remaining lines, values ahead:

IC50 (His-BIR3 (241-356, XIAP)) [nM]	IC50 [1] [nM]	Compound
< 10	≤ 1	CN[C@@H](C)C(=O)N[C@H](C(=O)N1C[C@@H]2C[C@H]1C(=O)N[C@@H](Cc1ccc3ccccc3c1)C(=O)N[C@H](C(=O)O)Cc1ccc(cc1)OCc1cn(nn1)[C@H]1C[C@@H](C(=O)N[C@@H](Cc3ccc4ccccc4c3)C(=O)N[C@H](C(=O)N(C)CCC(=O)O)Cc3ccc(cc3)OCc3cn2nn3)N(C(=O)[C@@H](NC(=O)[C@H](C)NC)C(C)(C)C)C1)C(C)(C)C [Compound 1028]
< 10	≤ 1	CN[C@@H](C)C(=O)N[C@H](C(=O)N1C[C@@H]2C[C@H]1C(=O)N[C@@H](Cc1ccc3ccccc3c1)C(=O)N[C@H](C(=O)O)Cc1ccc(cc1)OCc1cn(nn1)[C@H]1C[C@@H](C(=O)N[C@@H](Cc3ccc4ccccc4c3)C(=O)N[C@H](C(=O)NCCCC(=O)O)Cc3ccc(cc3)OCc3cn2nn3)N(C(=O)[C@@H](NC(=O)[C@H](C)NC)C(C)(C)C)C1)C(C)(C)C [Compound 1032]
< 10	1 to 10	CN[C@@H](C)C(=O)N[C@H](C(=O)N1C[C@@H]2C[C@H]1C(=O)N[C@@H](Cc1ccc3ccccc3c1)C(=O)N[C@H](C(=O)O)Cc1ccc(cc1)OCc1cn(nn1)[C@H]1C[C@@H](C(=O)N[C@@H](Cc3ccc4ccccc4c3)C(=O)N[C@H](C(=O)N[C@@H](C)C(=O)O)Cc3ccc(cc3)OCc3cn2nn3)N(C(=O)[C@@H](NC(=O)[C@H](C)NC)C(C)(C)C)C1)C(C)(C)C [Compound 1033]
10 to 100	> 10	CN[C@@H](C)C(=O)N[C@H](C(=O)N1C[C@@H]2C[C@H]1C(=O)N[C@@H](Cc1ccc3ccccc3c1)C(=O)N[C@H](C(=O)O)Cc1ccc(cc1)OCc1cn(nn1)[C@H]1C[C@@H](C(=O)N[C@@H](Cc3ccc4ccccc4c3)C(=O)N[C@H](C(=O)N[C@@H](CCCCN)C(=O)N[C@@H](CO)C(=O)O)Cc3ccc(cc3)OCc3cn2nn3)N(C(=O)[C@@H](NC(=O)[C@H](C)NC)C(C)(C)C)C1)C(C)(C)C [Compound 1034]
10 to 100	> 10	CN[C@@H](C)C(=O)N[C@H](C(=O)N1C[C@@H]2C[C@H]1C(=O)N[C@@H](Cc1ccc3ccccc3c1)C(=O)N[C@H](C(=O)O)Cc1ccc(cc1)OCc1cn(nn1)[C@H]1C[C@@H](C(=O)N[C@@H](Cc3ccc4ccccc4c3)C(=O)N[C@H](C(=O)N[C@@H](CC(=O)O)C(=O)N[C@H](CCSC)C(=O)O)Cc3ccc(cc3)OCc3cn2nn3)N(C(=O)[C@@H](NC(=O)[C@H](C)NC)C(C)(C)C)C1)C(C)(C)C [Compound 1038]
10 to 100	1 to 10	CN[C@@H](C)C(=O)N[C@H](C(=O)N1C[C@@H]2C[C@H]1C(=O)N[C@@H](Cc1ccc3ccccc3c1)C(=O)N[C@H](C(=O)O)Cc1ccc(cc1)OCc1cn(nn1)[C@H]1C[C@@H](C(=O)N[C@@H](Cc3ccc4ccccc4c3)C(=O)N[C@H](C(=O)NC(CO)CO)Cc3ccc(cc3)OCc3cn2nn3)N(C(=O)[C@@H](NC(=O)[C@H](C)NC)C(C)(C)C)C1)C(C)(C)C [Compound 1042]
